2 compounds from patent US5585356A, “Matrix metalloproteinase peptides: role in diagnosis and therapy” (priority 1994, dated 1996) can be followed below.

Where no end group is shown, it is not given here.

In one test the target is type IV procollagenase (Homo sapiens, UniProt P08253). To be noted: 10 mM EDTA; 1 mM pAPMA, 37° C.
The target in the next test is T1, type IV collagenase (Homo sapiens, UniProt P08253).
T1 construct: endogenous in cells; host or cells: human A2058 melanoma cells
T1 sequence (P08253 110-660): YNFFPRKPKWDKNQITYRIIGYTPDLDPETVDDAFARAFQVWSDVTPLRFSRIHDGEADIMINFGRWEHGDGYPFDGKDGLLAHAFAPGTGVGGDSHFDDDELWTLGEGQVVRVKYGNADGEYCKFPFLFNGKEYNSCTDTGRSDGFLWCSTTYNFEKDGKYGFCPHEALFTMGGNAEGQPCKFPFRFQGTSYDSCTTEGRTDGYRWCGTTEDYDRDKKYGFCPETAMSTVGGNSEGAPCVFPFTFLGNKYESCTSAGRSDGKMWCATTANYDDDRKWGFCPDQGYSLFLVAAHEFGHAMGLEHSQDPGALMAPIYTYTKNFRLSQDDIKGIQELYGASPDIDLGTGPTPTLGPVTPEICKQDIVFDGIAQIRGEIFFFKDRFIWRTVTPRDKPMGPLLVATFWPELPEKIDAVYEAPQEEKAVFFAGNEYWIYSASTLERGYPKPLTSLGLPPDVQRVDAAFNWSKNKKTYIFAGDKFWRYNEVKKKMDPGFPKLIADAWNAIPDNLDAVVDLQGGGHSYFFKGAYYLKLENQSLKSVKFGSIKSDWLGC
The test is described as follows: soluble type IV collagenase assay (3H-type IV collagen degradation). It is filed as biochemical. The following applies: peptide 0.1 mM; purified activated type IV collagenase, pepsinized type IV collagen (FIG. 11). On the procedure:
FIG. 11 illustrates the dose dependent inhibition of purified activated type IV collagenase cleavage of pepsinized type IV collagen by the designated synthetic peptides. Peptide TMRKPRCGNPDVAN at a concentration of 0.1 mM inhibits 80% of the enzyme activity.
The procedure for the collagenase assay of this example utilized the following preparation.
1. Place enzyme sample activator (usually 1 mM pAPMA) and test solution in 1.5 ml Eppendorf tube. Combined volume must equal 60 μl. Add 1× collagenase buffer, if necessary. If necessary, preincubate.
2. Prepare type Iv collagen substrate by diluting stock ^3 H-type IV collagen (NEN #NET-931 lot #2511-018) 1:120 with 1× collagenase buffer. Heat to 55° C. for 10 minutes and cool on ice.
3. Add 5 μl of diluted mH-type IV collagen solution to each assay tube. Vortex to mix and incubate at 28° C. for 4 hours.
4. At the end of the incubation period, add 2 μl of carrier BSA solution and 7 μl of TCATAP solution. Vortex mix and allow to stand on ice for at least 10 minutes.
5. Pellet the precipitate by centrifuging in the microfuge for 10 minutes with the speed set at 6. Orient the tubes when placing them in the microfuge in order that the position of the pellet will be known.
6. Immediately after centrifugation, aspirate 55 μl of the supernatant and place in a scintillation vial. Add 5 ml of scintillation cocktail, shake well and count. […]

type IV procollagenase, sequence (P08253 30-660 limits assumed): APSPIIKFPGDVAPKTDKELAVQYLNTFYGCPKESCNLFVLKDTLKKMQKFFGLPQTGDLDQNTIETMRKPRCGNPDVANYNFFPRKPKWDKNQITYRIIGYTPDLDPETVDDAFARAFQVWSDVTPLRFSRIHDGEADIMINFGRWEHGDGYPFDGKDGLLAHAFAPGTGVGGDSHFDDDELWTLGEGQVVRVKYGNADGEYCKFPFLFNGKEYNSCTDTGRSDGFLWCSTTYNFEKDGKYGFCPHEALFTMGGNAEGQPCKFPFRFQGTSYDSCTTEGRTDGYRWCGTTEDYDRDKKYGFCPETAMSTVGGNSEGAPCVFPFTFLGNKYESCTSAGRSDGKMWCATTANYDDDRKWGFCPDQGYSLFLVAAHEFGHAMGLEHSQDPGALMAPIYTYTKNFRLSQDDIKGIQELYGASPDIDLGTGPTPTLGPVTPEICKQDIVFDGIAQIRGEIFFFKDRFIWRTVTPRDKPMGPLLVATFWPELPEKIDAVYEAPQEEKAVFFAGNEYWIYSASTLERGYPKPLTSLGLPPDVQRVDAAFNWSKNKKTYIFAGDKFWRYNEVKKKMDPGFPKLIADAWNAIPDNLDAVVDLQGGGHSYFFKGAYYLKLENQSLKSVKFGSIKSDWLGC
Protocol for type IV procollagenase: 20 μl aliquots of A2058 melanoma cell conditioned media were activated in the presence of 1.0 mM pAPMA for the indicated times (min). The reactions were stopped by the addition of EDTA to 10 mM and the samples were electrophoresed on a 9% acrylamide gel with or without gelatin. The gelatin containing gels were developed as zymograms after electrophoresis.
Stock solutions of 0.01M p-APMA in 0.05N NaOH were prepared fresh daily. Proenzyme samples were incubated with a final concentration 0.5 or 1.0 mM p-APMA for varying times (0-16 hours) at 37° C. Following incubation, the samples were analyzed directly by NaDodSO4 -PAGE on 9% acrylamide gels containing 0.1% gelatin (gelatin zymogram). Alternatively, the samples were run on 9% NaDodSO4 -PAGE and electroblotted onto Immobilon P membranes (Millipore).

`O=C(O)CN(CCN(CC(=O)O)CC(=O)O)CC(=O)O` [EDTA]: the “conversion of 70 kDa band to 62 kDa form” value on type IV procollagenase is on record as “completely inhibited”.

As to “TMRKPRCGNPDVAN [Peptide 74, TMRKPRCGNPDVAN]”, the “inhibition of enzyme activity” value at type IV collagenase was determined as 80%.
